Reference: ChEMBL document CHEMBL1139649, “Hetaryl imidazoles: a novel dual inhibitors of VEGF receptors I and II” (Bioorg Med Chem Lett, 2006)

Target: Insulin-like growth factor 1 receptor (Homo sapiens) (UniProt P08069)
Test: […] against IGF1R at 10 uM by HTRF method

Activity	Structure (SMILES)
< 30%	Cn1cnc(NCc2ccncc2)c1-c1nnc(Nc2ccc(C(F)(F)F)cc2)o1
< 30%	Cn1cnc(NCc2ccncc2)c1-c1nnc(Nc2ccc(OC(F)(F)F)cc2)o1
< 30%	COc1ccc(Nc2nnc(-c3c(NCc4ccncc4)ncn3C)o2)cc1OC
< 30%	CC(C)c1ccc(Nc2nnc(-c3c(NCc4ccncc4)ncn3C)o2)cc1
< 30%	Cn1cnc(NCc2cccc3ncccc23)c1-c1nnc(Nc2ccc(Cl)cc2)o1
< 30%	Cn1cnc(NCc2ccncc2)c1-c1nnc(Nc2ccc(Cl)cc2)o1

Target: T1, Vascular endothelial growth factor receptor 2 (Homo sapiens, UniProt P35968)
Test: Inhibition of VEGFR2 by enzymatic assay

IC50	Structure (SMILES)
73 nM	Cn1cnc(NCc2ccncc2)c1-c1nnc(Nc2ccc(C(F)(F)F)cc2)o1
93 nM	Cn1cnc(NCc2ccncc2)c1-c1nnc(Nc2ccc(OC(F)(F)F)cc2)o1
52 nM	COc1ccc(Nc2nnc(-c3c(NCc4ccncc4)ncn3C)o2)cc1OC
440 nM	CC(C)c1ccc(Nc2nnc(-c3c(NCc4ccncc4)ncn3C)o2)cc1
3540 nM	Cn1cnc(NCc2cccc3ncccc23)c1-c1nnc(Nc2ccc(Cl)cc2)o1
250 nM	Cn1cnc(NCc2ccncc2)c1-c1nnc(Nc2ccc(Cl)cc2)o1

Target: Vascular endothelial growth factor receptor 1 (Homo sapiens, UniProt P17948)
Test: Inhibition of VEGFR1 by enzymatic assay

Vascular endothelial growth factor receptor 1, sequence (P17948 whole entry): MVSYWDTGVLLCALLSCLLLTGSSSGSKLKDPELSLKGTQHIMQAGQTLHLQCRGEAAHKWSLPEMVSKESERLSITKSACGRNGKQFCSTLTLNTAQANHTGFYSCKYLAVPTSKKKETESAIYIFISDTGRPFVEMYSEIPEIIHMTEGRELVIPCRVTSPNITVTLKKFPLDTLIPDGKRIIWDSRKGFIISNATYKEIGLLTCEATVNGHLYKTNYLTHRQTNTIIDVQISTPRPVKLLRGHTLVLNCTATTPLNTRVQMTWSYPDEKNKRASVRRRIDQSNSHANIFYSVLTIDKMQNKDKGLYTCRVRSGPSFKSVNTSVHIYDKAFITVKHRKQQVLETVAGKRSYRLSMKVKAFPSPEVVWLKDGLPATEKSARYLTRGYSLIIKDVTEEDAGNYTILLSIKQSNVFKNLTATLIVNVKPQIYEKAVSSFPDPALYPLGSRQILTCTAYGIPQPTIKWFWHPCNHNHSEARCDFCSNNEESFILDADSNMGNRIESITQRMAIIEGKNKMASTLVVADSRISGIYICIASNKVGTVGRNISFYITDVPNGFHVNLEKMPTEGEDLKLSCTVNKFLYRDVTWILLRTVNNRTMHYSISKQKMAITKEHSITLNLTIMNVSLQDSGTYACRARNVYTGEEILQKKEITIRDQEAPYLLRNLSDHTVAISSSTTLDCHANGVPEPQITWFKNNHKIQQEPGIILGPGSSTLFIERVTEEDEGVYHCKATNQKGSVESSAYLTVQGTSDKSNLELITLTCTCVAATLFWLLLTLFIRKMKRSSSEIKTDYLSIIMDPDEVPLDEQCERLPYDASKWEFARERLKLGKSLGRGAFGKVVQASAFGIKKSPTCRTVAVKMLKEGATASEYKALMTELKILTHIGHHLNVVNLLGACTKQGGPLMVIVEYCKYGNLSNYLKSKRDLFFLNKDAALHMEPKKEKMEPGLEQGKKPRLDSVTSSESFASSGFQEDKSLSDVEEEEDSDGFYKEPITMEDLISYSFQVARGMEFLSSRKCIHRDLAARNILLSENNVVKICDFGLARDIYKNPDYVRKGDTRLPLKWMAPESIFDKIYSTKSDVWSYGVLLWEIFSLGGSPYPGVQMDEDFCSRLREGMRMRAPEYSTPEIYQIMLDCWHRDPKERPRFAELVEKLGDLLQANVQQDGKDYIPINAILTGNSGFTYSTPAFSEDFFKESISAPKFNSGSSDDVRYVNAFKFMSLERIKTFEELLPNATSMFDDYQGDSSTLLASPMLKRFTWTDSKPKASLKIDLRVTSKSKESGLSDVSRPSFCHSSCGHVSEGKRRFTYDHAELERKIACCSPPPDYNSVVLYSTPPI

IC50	Structure (SMILES)
120 nM	Cn1cnc(NCc2ccncc2)c1-c1nnc(Nc2ccc(C(F)(F)F)cc2)o1
160 nM	Cn1cnc(NCc2ccncc2)c1-c1nnc(Nc2ccc(OC(F)(F)F)cc2)o1
590 nM	COc1ccc(Nc2nnc(-c3c(NCc4ccncc4)ncn3C)o2)cc1OC
770 nM	CC(C)c1ccc(Nc2nnc(-c3c(NCc4ccncc4)ncn3C)o2)cc1
> 10000 nM	Cn1cnc(NCc2cccc3ncccc23)c1-c1nnc(Nc2ccc(Cl)cc2)o1
340 nM	Cn1cnc(NCc2ccncc2)c1-c1nnc(Nc2ccc(Cl)cc2)o1

Target: T1, Vascular endothelial growth factor receptor 2
Test: Inhibition of VEGFR2 in 293 adenovirus transfected kidney cells by cell-based ELISA assay

IC50	Structure (SMILES)
82 nM	Cn1cnc(NCc2ccncc2)c1-c1nnc(Nc2ccc(C(F)(F)F)cc2)o1
66 nM	Cn1cnc(NCc2ccncc2)c1-c1nnc(Nc2ccc(OC(F)(F)F)cc2)o1
93 nM	COc1ccc(Nc2nnc(-c3c(NCc4ccncc4)ncn3C)o2)cc1OC
1150 nM	CC(C)c1ccc(Nc2nnc(-c3c(NCc4ccncc4)ncn3C)o2)cc1
> 10000 nM	Cn1cnc(NCc2cccc3ncccc23)c1-c1nnc(Nc2ccc(Cl)cc2)o1
570 nM	Cn1cnc(NCc2ccncc2)c1-c1nnc(Nc2ccc(Cl)cc2)o1

System: not listed separately
Test: Solubility in water
Type: physicochemical

solubility	Structure (SMILES)
> 5 mM	Cn1cnc(NCc2ccncc2)c1-c1nnc(Nc2ccc(C(F)(F)F)cc2)o1
> 5 mM	Cn1cnc(NCc2ccncc2)c1-c1nnc(Nc2ccc(OC(F)(F)F)cc2)o1
> 5 mM	COc1ccc(Nc2nnc(-c3c(NCc4ccncc4)ncn3C)o2)cc1OC

Target: Receptor-type tyrosine-protein kinase FLT3 (Homo sapiens) (UniProt P36888)
Test: Inhibition of Flt3 at 10 uM by HTRF method
Design: scale not given: the % may be the effect or the level left

Receptor-type tyrosine-protein kinase FLT3 (Homo sapiens), sequence (P36888 whole entry): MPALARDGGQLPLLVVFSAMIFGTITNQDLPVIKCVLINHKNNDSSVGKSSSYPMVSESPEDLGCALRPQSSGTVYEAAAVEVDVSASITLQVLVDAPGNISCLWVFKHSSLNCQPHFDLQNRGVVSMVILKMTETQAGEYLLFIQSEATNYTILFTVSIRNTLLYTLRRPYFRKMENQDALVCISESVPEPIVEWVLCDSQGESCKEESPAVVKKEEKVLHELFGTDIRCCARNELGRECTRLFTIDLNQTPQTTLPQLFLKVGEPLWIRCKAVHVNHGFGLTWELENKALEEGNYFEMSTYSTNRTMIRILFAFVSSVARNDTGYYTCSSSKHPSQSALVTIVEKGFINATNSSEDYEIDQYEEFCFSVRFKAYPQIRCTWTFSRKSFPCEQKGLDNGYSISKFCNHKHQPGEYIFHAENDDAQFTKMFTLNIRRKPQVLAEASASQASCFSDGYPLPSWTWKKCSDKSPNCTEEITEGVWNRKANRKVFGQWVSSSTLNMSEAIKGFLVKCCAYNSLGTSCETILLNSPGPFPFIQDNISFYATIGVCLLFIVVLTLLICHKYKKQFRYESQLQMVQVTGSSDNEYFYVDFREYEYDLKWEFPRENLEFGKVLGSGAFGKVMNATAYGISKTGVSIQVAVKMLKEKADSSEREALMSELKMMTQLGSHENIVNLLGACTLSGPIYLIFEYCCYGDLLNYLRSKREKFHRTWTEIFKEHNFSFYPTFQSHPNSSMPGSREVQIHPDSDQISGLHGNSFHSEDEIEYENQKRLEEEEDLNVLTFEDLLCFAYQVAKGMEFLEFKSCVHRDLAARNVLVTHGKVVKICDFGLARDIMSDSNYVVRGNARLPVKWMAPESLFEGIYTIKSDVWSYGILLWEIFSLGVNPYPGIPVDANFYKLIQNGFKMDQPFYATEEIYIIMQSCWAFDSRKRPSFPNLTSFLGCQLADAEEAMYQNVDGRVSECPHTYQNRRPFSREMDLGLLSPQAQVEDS

Activity	Structure (SMILES)
< 30%	Cn1cnc(NCc2ccncc2)c1-c1nnc(Nc2ccc(C(F)(F)F)cc2)o1
< 30%	Cn1cnc(NCc2ccncc2)c1-c1nnc(Nc2ccc(OC(F)(F)F)cc2)o1
< 30%	COc1ccc(Nc2nnc(-c3c(NCc4ccncc4)ncn3C)o2)cc1OC
< 30%	CC(C)c1ccc(Nc2nnc(-c3c(NCc4ccncc4)ncn3C)o2)cc1
< 30%	Cn1cnc(NCc2cccc3ncccc23)c1-c1nnc(Nc2ccc(Cl)cc2)o1
< 30%	Cn1cnc(NCc2ccncc2)c1-c1nnc(Nc2ccc(Cl)cc2)o1

Target: Epidermal growth factor receptor (Homo sapiens) (UniProt P00533)
Test: […] against ErbB1 at 10 uM by HTRF method

Epidermal growth factor receptor (Homo sapiens), sequence (P00533 whole entry): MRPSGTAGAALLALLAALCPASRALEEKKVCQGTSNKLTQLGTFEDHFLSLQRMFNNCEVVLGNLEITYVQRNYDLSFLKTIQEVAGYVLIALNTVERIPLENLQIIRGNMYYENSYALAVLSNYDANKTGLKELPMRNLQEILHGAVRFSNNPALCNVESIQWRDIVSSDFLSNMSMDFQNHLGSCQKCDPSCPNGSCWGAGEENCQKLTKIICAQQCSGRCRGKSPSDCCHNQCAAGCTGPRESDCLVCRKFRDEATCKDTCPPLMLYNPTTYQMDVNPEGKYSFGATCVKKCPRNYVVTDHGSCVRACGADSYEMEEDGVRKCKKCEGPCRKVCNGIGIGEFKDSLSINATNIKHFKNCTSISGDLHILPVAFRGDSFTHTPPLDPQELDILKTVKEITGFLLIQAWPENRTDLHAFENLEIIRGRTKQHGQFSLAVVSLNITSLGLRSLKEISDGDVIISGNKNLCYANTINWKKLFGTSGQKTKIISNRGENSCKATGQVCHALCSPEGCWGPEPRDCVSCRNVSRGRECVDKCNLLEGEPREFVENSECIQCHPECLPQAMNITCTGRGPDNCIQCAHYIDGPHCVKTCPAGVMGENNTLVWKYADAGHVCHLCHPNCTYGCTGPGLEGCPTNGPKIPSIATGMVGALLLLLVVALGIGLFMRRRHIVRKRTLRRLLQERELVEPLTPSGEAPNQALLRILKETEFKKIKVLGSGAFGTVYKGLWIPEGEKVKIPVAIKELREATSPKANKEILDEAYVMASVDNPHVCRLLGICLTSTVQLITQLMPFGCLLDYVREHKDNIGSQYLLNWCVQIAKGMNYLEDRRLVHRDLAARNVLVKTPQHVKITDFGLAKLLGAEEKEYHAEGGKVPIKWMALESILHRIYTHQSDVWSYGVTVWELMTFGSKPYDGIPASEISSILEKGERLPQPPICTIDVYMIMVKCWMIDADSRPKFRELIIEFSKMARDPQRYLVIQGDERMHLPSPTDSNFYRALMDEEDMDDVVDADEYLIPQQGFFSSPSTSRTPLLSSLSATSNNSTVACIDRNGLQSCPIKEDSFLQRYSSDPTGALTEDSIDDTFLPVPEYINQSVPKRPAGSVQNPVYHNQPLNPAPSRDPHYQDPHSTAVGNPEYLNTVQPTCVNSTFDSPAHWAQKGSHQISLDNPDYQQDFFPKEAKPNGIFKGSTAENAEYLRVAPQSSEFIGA

Percent inhibition	Structure (SMILES)
< 30%	Cn1cnc(NCc2ccncc2)c1-c1nnc(Nc2ccc(C(F)(F)F)cc2)o1
< 30%	Cn1cnc(NCc2ccncc2)c1-c1nnc(Nc2ccc(OC(F)(F)F)cc2)o1
< 30%	COc1ccc(Nc2nnc(-c3c(NCc4ccncc4)ncn3C)o2)cc1OC
< 30%	CC(C)c1ccc(Nc2nnc(-c3c(NCc4ccncc4)ncn3C)o2)cc1
< 30%	Cn1cnc(NCc2cccc3ncccc23)c1-c1nnc(Nc2ccc(Cl)cc2)o1
< 30%	Cn1cnc(NCc2ccncc2)c1-c1nnc(Nc2ccc(Cl)cc2)o1

Target: Receptor tyrosine-protein kinase erbB-2 (Homo sapiens) (UniProt P04626)
Test: […] against ErbB2 at 10 uM by HTRF method

Activity	Structure (SMILES)
< 30%	Cn1cnc(NCc2ccncc2)c1-c1nnc(Nc2ccc(C(F)(F)F)cc2)o1
< 30%	Cn1cnc(NCc2ccncc2)c1-c1nnc(Nc2ccc(OC(F)(F)F)cc2)o1
< 30%	COc1ccc(Nc2nnc(-c3c(NCc4ccncc4)ncn3C)o2)cc1OC
< 30%	CC(C)c1ccc(Nc2nnc(-c3c(NCc4ccncc4)ncn3C)o2)cc1
< 30%	Cn1cnc(NCc2cccc3ncccc23)c1-c1nnc(Nc2ccc(Cl)cc2)o1
< 30%	Cn1cnc(NCc2ccncc2)c1-c1nnc(Nc2ccc(Cl)cc2)o1

Target: T2, Ephrin type-B receptor 4 (Homo sapiens) (UniProt P54760)
T2 sequence (whole entry): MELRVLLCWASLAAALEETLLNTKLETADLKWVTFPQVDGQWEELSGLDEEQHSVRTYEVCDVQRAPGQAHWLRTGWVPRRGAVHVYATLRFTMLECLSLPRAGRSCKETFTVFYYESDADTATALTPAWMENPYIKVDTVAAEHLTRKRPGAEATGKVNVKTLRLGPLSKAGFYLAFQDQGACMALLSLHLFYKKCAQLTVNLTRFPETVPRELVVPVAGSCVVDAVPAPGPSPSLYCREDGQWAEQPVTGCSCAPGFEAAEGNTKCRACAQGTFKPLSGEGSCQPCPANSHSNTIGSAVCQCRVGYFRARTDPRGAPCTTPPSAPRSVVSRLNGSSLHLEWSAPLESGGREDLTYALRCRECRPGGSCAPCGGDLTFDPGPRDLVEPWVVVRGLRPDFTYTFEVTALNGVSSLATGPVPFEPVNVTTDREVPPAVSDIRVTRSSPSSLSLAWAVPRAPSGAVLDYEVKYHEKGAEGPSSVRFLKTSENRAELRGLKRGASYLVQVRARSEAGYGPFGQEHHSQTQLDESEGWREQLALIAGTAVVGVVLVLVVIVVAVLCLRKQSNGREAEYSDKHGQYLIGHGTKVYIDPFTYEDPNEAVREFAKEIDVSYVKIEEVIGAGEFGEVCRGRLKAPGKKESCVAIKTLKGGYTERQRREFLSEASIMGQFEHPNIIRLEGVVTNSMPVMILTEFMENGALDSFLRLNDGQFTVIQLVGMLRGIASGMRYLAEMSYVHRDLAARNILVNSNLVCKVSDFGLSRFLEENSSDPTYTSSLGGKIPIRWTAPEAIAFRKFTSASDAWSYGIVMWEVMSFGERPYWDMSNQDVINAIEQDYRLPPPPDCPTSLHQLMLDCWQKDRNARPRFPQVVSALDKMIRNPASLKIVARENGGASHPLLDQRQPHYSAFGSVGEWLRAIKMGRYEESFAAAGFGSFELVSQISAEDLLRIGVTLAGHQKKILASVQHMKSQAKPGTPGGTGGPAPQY
Test: Percent inhibition against EphB4 at 10 uM by HTRF method
Design: scale not given: the % may be the effect or the level left

Activity	Structure (SMILES)
< 30%	Cn1cnc(NCc2ccncc2)c1-c1nnc(Nc2ccc(C(F)(F)F)cc2)o1
< 30%	Cn1cnc(NCc2ccncc2)c1-c1nnc(Nc2ccc(OC(F)(F)F)cc2)o1
< 30%	COc1ccc(Nc2nnc(-c3c(NCc4ccncc4)ncn3C)o2)cc1OC
< 30%	CC(C)c1ccc(Nc2nnc(-c3c(NCc4ccncc4)ncn3C)o2)cc1
< 30%	Cn1cnc(NCc2cccc3ncccc23)c1-c1nnc(Nc2ccc(Cl)cc2)o1
< 30%	Cn1cnc(NCc2ccncc2)c1-c1nnc(Nc2ccc(Cl)cc2)o1

Target: Hepatocyte growth factor receptor (Homo sapiens) (UniProt P08581)
Test: Percent inhibition against c-Met at 10 uM by HTRF method
Design: scale not given: the % may be the effect or the level left

Hepatocyte growth factor receptor (Homo sapiens), sequence (P08581 whole entry): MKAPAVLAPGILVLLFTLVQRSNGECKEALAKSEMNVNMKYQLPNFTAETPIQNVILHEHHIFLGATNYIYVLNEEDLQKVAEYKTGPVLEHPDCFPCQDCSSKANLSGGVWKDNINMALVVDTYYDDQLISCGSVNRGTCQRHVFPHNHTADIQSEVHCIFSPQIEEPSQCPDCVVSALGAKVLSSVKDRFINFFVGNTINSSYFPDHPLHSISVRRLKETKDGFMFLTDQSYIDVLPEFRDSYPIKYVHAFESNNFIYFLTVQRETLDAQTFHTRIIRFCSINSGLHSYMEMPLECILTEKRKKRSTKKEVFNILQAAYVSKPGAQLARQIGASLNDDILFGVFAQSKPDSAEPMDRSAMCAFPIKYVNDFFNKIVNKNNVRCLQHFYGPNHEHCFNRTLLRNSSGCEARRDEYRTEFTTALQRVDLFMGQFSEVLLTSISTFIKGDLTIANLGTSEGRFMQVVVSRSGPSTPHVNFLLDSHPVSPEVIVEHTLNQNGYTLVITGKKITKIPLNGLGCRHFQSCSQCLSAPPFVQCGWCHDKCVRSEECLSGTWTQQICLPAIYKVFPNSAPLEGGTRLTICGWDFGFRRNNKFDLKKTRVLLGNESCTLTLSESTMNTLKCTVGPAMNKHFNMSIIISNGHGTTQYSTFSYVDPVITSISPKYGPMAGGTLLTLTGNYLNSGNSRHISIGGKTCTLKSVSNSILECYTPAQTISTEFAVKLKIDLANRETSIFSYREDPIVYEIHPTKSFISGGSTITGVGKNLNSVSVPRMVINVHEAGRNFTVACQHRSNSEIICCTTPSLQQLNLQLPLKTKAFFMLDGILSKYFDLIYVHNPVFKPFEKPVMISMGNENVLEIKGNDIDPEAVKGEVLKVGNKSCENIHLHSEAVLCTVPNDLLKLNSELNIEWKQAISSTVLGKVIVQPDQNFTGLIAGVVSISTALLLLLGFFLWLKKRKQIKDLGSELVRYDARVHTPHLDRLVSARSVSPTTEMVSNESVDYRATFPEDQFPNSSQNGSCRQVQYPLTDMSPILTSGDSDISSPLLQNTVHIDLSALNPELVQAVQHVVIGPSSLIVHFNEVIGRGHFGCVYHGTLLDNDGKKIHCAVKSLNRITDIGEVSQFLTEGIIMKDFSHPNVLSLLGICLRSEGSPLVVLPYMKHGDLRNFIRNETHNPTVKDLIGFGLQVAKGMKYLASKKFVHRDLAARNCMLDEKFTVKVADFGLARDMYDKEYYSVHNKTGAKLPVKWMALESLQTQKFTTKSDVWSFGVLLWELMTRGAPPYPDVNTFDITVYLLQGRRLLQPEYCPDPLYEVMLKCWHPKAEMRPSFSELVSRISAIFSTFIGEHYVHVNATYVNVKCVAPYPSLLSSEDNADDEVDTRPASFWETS

Activity	Structure (SMILES)
< 30%	Cn1cnc(NCc2ccncc2)c1-c1nnc(Nc2ccc(C(F)(F)F)cc2)o1
< 30%	Cn1cnc(NCc2ccncc2)c1-c1nnc(Nc2ccc(OC(F)(F)F)cc2)o1
< 30%	COc1ccc(Nc2nnc(-c3c(NCc4ccncc4)ncn3C)o2)cc1OC
< 30%	CC(C)c1ccc(Nc2nnc(-c3c(NCc4ccncc4)ncn3C)o2)cc1
< 30%	Cn1cnc(NCc2cccc3ncccc23)c1-c1nnc(Nc2ccc(Cl)cc2)o1
< 30%	Cn1cnc(NCc2ccncc2)c1-c1nnc(Nc2ccc(Cl)cc2)o1

Target: cAMP-dependent protein kinase (PKA) (Homo sapiens) (UniProt P22694+P17612+P22612)
Test: Inhibition against PKA at 10 uM by HTRF method
Type: protein assay
Design: scale not given: the % may be the effect or the level left

Activity	Structure (SMILES)
< 30%	Cn1cnc(NCc2ccncc2)c1-c1nnc(Nc2ccc(C(F)(F)F)cc2)o1
< 30%	Cn1cnc(NCc2ccncc2)c1-c1nnc(Nc2ccc(OC(F)(F)F)cc2)o1
< 30%	COc1ccc(Nc2nnc(-c3c(NCc4ccncc4)ncn3C)o2)cc1OC
< 30%	CC(C)c1ccc(Nc2nnc(-c3c(NCc4ccncc4)ncn3C)o2)cc1
< 30%	Cn1cnc(NCc2cccc3ncccc23)c1-c1nnc(Nc2ccc(Cl)cc2)o1
< 30%	Cn1cnc(NCc2ccncc2)c1-c1nnc(Nc2ccc(Cl)cc2)o1

Target: Glycogen synthase kinase-3 beta (Homo sapiens) (UniProt P49841)
Test: Inhibition against GSK3-beta at 10 uM by HTRF method
Design: scale not given: the % may be the effect or the level left

Activity	Structure (SMILES)
< 30%	Cn1cnc(NCc2ccncc2)c1-c1nnc(Nc2ccc(C(F)(F)F)cc2)o1
< 30%	Cn1cnc(NCc2ccncc2)c1-c1nnc(Nc2ccc(OC(F)(F)F)cc2)o1
< 30%	COc1ccc(Nc2nnc(-c3c(NCc4ccncc4)ncn3C)o2)cc1OC
< 30%	CC(C)c1ccc(Nc2nnc(-c3c(NCc4ccncc4)ncn3C)o2)cc1
< 30%	Cn1cnc(NCc2cccc3ncccc23)c1-c1nnc(Nc2ccc(Cl)cc2)o1
< 30%	Cn1cnc(NCc2ccncc2)c1-c1nnc(Nc2ccc(Cl)cc2)o1

Target: RAC-alpha serine/threonine-protein kinase (Homo sapiens) (UniProt P31749)
Test: […] against PKB/Akt at 10 uM by HTRF method

Activity	Structure (SMILES)
< 30%	Cn1cnc(NCc2ccncc2)c1-c1nnc(Nc2ccc(C(F)(F)F)cc2)o1
< 30%	Cn1cnc(NCc2ccncc2)c1-c1nnc(Nc2ccc(OC(F)(F)F)cc2)o1
< 30%	COc1ccc(Nc2nnc(-c3c(NCc4ccncc4)ncn3C)o2)cc1OC
< 30%	CC(C)c1ccc(Nc2nnc(-c3c(NCc4ccncc4)ncn3C)o2)cc1
< 30%	Cn1cnc(NCc2cccc3ncccc23)c1-c1nnc(Nc2ccc(Cl)cc2)o1
< 30%	Cn1cnc(NCc2ccncc2)c1-c1nnc(Nc2ccc(Cl)cc2)o1

Target: Bcr/Abl fusion protein (Homo sapiens) (UniProt P00519+P11274)
Test: Inhibition of bcr-Abl at 10 uM by HTRF method
Type: protein assay
Design: scale not given: the % may be the effect or the level left

Activity	Structure (SMILES)
< 30%	Cn1cnc(NCc2ccncc2)c1-c1nnc(Nc2ccc(C(F)(F)F)cc2)o1
< 30%	Cn1cnc(NCc2ccncc2)c1-c1nnc(Nc2ccc(OC(F)(F)F)cc2)o1
< 30%	COc1ccc(Nc2nnc(-c3c(NCc4ccncc4)ncn3C)o2)cc1OC
< 30%	CC(C)c1ccc(Nc2nnc(-c3c(NCc4ccncc4)ncn3C)o2)cc1
< 30%	Cn1cnc(NCc2cccc3ncccc23)c1-c1nnc(Nc2ccc(Cl)cc2)o1
< 30%	Cn1cnc(NCc2ccncc2)c1-c1nnc(Nc2ccc(Cl)cc2)o1

Target: Cyclin-dependent kinase 2 (Homo sapiens) (UniProt P24941)
Test: […] against Cdk2 at 10 uM by HTRF method

Percent inhibition	Structure (SMILES)
< 30%	Cn1cnc(NCc2ccncc2)c1-c1nnc(Nc2ccc(C(F)(F)F)cc2)o1
< 30%	Cn1cnc(NCc2ccncc2)c1-c1nnc(Nc2ccc(OC(F)(F)F)cc2)o1
< 30%	COc1ccc(Nc2nnc(-c3c(NCc4ccncc4)ncn3C)o2)cc1OC
< 30%	CC(C)c1ccc(Nc2nnc(-c3c(NCc4ccncc4)ncn3C)o2)cc1
< 30%	Cn1cnc(NCc2cccc3ncccc23)c1-c1nnc(Nc2ccc(Cl)cc2)o1
< 30%	Cn1cnc(NCc2ccncc2)c1-c1nnc(Nc2ccc(Cl)cc2)o1

Target: Cyclin-dependent kinase 5 (Homo sapiens) (UniProt Q00535)
Test: […] against Cdk5 at 10 uM by HTRF method

Activity	Structure (SMILES)
< 30%	Cn1cnc(NCc2ccncc2)c1-c1nnc(Nc2ccc(C(F)(F)F)cc2)o1
< 30%	Cn1cnc(NCc2ccncc2)c1-c1nnc(Nc2ccc(OC(F)(F)F)cc2)o1
< 30%	COc1ccc(Nc2nnc(-c3c(NCc4ccncc4)ncn3C)o2)cc1OC
< 30%	CC(C)c1ccc(Nc2nnc(-c3c(NCc4ccncc4)ncn3C)o2)cc1
< 30%	Cn1cnc(NCc2cccc3ncccc23)c1-c1nnc(Nc2ccc(Cl)cc2)o1
< 30%	Cn1cnc(NCc2ccncc2)c1-c1nnc(Nc2ccc(Cl)cc2)o1

Target: Fibroblast growth factor receptor 1 (Homo sapiens) (UniProt P11362)
Test: Percent inhibition against FGFR1 at 10 uM by HTRF method
Design: scale not given: the % may be the effect or the level left

Activity	Structure (SMILES)
< 30%	Cn1cnc(NCc2ccncc2)c1-c1nnc(Nc2ccc(C(F)(F)F)cc2)o1
< 30%	Cn1cnc(NCc2ccncc2)c1-c1nnc(Nc2ccc(OC(F)(F)F)cc2)o1
< 30%	COc1ccc(Nc2nnc(-c3c(NCc4ccncc4)ncn3C)o2)cc1OC
< 30%	CC(C)c1ccc(Nc2nnc(-c3c(NCc4ccncc4)ncn3C)o2)cc1
< 30%	Cn1cnc(NCc2cccc3ncccc23)c1-c1nnc(Nc2ccc(Cl)cc2)o1
< 30%	Cn1cnc(NCc2ccncc2)c1-c1nnc(Nc2ccc(Cl)cc2)o1
